Results reported in ChEMBL document CHEMBL5042535, “Structure-Based Design and Synthesis of N-Substituted 3-Amino-β-Carboline Derivatives as Potent αβ-Tubulin Degradation Agents” (J Med Chem, 2022).

Key:
Type in all cases: functional, cell-based
MCF7 = assay: Antiproliferative activity against human MCF7 cells assessed as reduction in cell viability measured after 24 hrs by MTT assay; settings: MCF7, 24 h
HeLa = assay: Antiproliferative activity against human HeLa cells assessed as reduction in cell viability measured after 24 hrs by MTT assay
Raji = assay: Antiproliferative activity against human Raji cells assessed as reduction in cell viability measured after 24 hrs by MTT assay
NCI-H460 = assay: Antiproliferative activity against human NCI-H460 cells assessed as reduction in cell viability measured after 24 hrs by MTT assay; settings: NCI-H460, 24 h
A2780S = assay: Antiproliferative activity against human A2780S cells assessed as reduction in cell viability measured after 24 hrs by MTT assay

| Structure (SMILES) | IC50 (MCF7) [nM] | IC50 (HeLa) [nM] | IC50 (Raji) [nM] | IC50 (NCI-H460) [nM] | IC50 (A2780S) [nM] |
| --- | --- | --- | --- | --- | --- |
| COCCOc1cccc(CNc2cc3c(cn2)[nH]c2ccccc23)c1 | > 500 | > 500 | > 500 | > 500 | > 500 |
| CC(=O)Nc1ccccc1Oc1cccc(CNc2cc3c(cn2)[nH]c2ccccc23)c1 | > 500 | > 500 | > 500 | > 500 | > 500 |
| c1ccc(-c2ccc(CNc3cc4c(cn3)[nH]c3ccccc34)cc2)cc1 | > 500 | > 500 | > 500 | > 500 | > 500 |

Now those with a lower IC50 (MCF7), led by results:

| IC50 (MCF7) [nM] | IC50 (HeLa) [nM] | IC50 (Raji) [nM] | IC50 (NCI-H460) [nM] | IC50 (A2780S) [nM] | Structure (SMILES) |
| --- | --- | --- | --- | --- | --- |
| 27 | 39 | 33 | 76 | 28 | Fc1ccc(Oc2cccc(CNc3cc4c(cn3)[nH]c3ccccc34)c2)cc1 |
| 47 | 46 | 37 | 48 | 60 | N#Cc1ccc(Oc2cccc(CNc3cc4c(cn3)[nH]c3ccccc34)c2)cc1 |
| 39 | 43 | 32 | 47 | 60 | Clc1cccc(Oc2cccc(CNc3cc4c(cn3)[nH]c3ccccc34)c2)c1 |
